The source of these data is ChEMBL document CHEMBL1921689, “Synthesis and biological profile of new 1,2,3,4-tetrahydroisoquinolines as selective carbonic anhydrase inhibitors” (Bioorg Med Chem, 2011).

The structures appear in SMILES notation.

As usually defined, the Ki is the dissociation constant of the complex between target and ligand, obtained from inhibition or displacement. Low values mean higher affinity, high ones lower affinity.

In this experiment the target is Carbonic anhydrase 9 (Homo sapiens, UniProt Q16790). In words: Inhibition of human CA9 catalytic domain preincubated for 15 mins by stopped flow CO2 hydration assay.
With `COc1ccc2c(c1)CCN(S(N)(=O)=O)C2c1cccc(N)c1` (racemic), the affinity corresponds to a Ki of 0.018 µM. This lies in the double-digit nanomolar range. `COc1ccc2c(c1)CCN(S(N)(=O)=O)C2c1ccccc1` (racemic) displayed a Ki of 0.078 µM. For the compound `COc1ccc2c(c1)CCN(S(N)(=O)=O)C2c1ccc(F)cc1` (racemic), the affinity corresponds to a Ki of 0.031 µM. In the case of `COc1ccc2c(c1)CCN(S(N)(=O)=O)C2c1cccc([N+](=O)[O-])c1` (racemic) it was 0.016 µM.

In turn, `COc1ccc2c(c1)CCN(S(N)(=O)=O)C2c1ccc(C)cc1` (racemic) registered a Ki of 0.0075 µM. This Ki is about 2.1-fold lower than that of the compound before. For `COc1ccc2c(c1)CCN(S(N)(=O)=O)C2c1ccc(Br)cc1` (racemic) the value was 0.0607 µM; for `COc1ccc2c(c1)CCN(S(N)(=O)=O)C2c1ccc(C#N)cc1` (racemic), 0.007 µM. For `COc1ccc2c(c1)CCN(S(N)(=O)=O)C2c1ccc(N)cc1` (racemic), the Ki was 0.012 µM. For `COc1ccc2c(c1)CCN(S(N)(=O)=O)C2c1ccc([N+](=O)[O-])cc1` (racemic) the value was 0.005 µM.
